How the values were obtained:
[1] = tested on: PKA-phosphorylated TMR-cC0-C2 (cC0-C2#P); test: FLT-TMR concentration-response assay, PKA-phosphorylated cC0-C2; format: binding, human; details: 60 μM compound
Description: (§1) Compounds identified as initial hits were further examined to determine the concentration–response curves for seven conditions ([1]): FMAL-actin alone identified actin-binding compounds that alter the FLT of FMAL-actin ([2]).
(§2) Fluorescence lifetime (FLT) measurements were acquired using a high-throughput FLT plate reader (Fluorescence Innovations, Inc) ([14], [27]), provided by Photonic Pharma LLC. […] The observed waveforms were analyzed as described previously ([15], [28]).
(§3) The primary hits were dissolved in DMSO to make a 10 mM stock solution, which was serially diluted in 96-well mother plates. Hits were screened at eight concentrations (0.5–100 μM). […] Compounds (1 μl) were transferred from the mother plates into 384-well plates using a Mosquito HV liquid handler (TTP Labtech Ltd, Hertfordshire, UK). The same procedure of dispensing as for the pilot screening was applied in the concentration-response assays. Concentration dependence of the FLT-FRET (E/EDMSO) or FLT-TMR (Δτ) change data was fit to a Hill equation only under certain conditions to help guide the eye (Fig. 4).

[2] = tested on: TMR-fC1-C2 (C1-C2 of fast skeletal MyBP-C); test: FLT-TMR concentration-response assay, fC1-C2; format: binding; details: 60 μM compound
Description: as §1, §2, §3

TMR-cC0-C2 = test: Selleck library HTS, 532 nm excitation (FLT of TMR-cC0-C2 in presence of FMAL-actin); format: binding, human; details: for 532-nm Δτ, Repeat 1 / 532-nm Δτ, Repeat 2: initial screen, 30 μM compound; for 532-nm z-score (based on avg Δτ): robust z-score, hit threshold ±4, 30 μM compound; for effect on FLT of TMR-cC0-C2 in the initial screen (in words): both replicates, actin present
Description: as §2
(§4) In total, 50 nl of each solution was dispensed in DMSO using an automated Echo 550 acoustic liquid dispenser (Labcyte). Compounds were formatted into the assay plates, at a final concentration of 30 μM, with the first two and second to last columns loaded with DMSO only (compound-free controls). In the final column, 30 μM of suramin was loaded as a positive control (tool compound). These assay plates were then heat-sealed using a PlateLoc Thermal Microplate Sealer (Agilent Technologies) and stored at −20 °C. Before screening, compound plates were equilibrated to room temperature (∼25 °C). […] Plates were incubated at room temperature for 60 min before recording the data with the fluorescence lifetime plate reader.
Hits that exceeded the z-score hit criteria in the donor-only screen were excluded from consideration. To remove compounds with confounding fluorescence properties, a similarity index (SI, specifically the cosine distance, Equation 5) was computed using data from the SUPR instrument by comparing a region (500–540 nm) of the donor-only spectrum (I^(a)) for each well to that of the plate-wide average DMSO spectrum (I^(b)) in the same wavelength band ([29]). Compounds that exceeded an SI robust z-score of 4 were deemed likely fluorescent compounds and removed from consideration.(5) SI=1−∑Ii(a).Ii(b)/∑Ii(a).Ii(a)∑Ii(b).Ii(b)

[3] = tested on: FMAL-actin plus TMR-cC0-C2; test: Selleck library HTS, 473 nm excitation (FLT of FMAL-actin with TMR-cC0-C2, FLT-FRET); format: binding, human; details: for 473-nm Δτ, Repeat 1 / 473-nm Δτ, Repeat 2: initial screen, 30 μM compound; for 473-nm z-score (based on avg Δτ): robust z-score, hit threshold ±4, 30 μM compound
Description: as §2, §4
After fitting the waveforms with a single exponential decay to quantify donor FLT, the change in FLT (Δτ) was computed by performing a moving median subtraction in the order the plate was scanned with a window size of half a plate row […]. The reasons for this are twofold. Firstly, plate gradients are often observed due to the heating of the digitizer during acquisition.
To account for the necessity to correct for plate gradients in the computation of E, the median τDMSO prior to the application of the moving median correction was added to each well’s Δτ value to recover a rescaled value of τ.

[4] = tested on: TMR-cC0-C2 (C0-C2 fragment of human cMyBP-C); test: FLT-TMR concentration-response assay (FLT of TMR on cC0-C2, no actin); format: binding; details: for cC0-C2/cC0-C2#P (ratio of FLT changes) / cC0-C2 FLT change (% change from DMSO, FLT of TMR-MyBP-C): 60 μM compound; for effect on FLT of TMR-cC0-C2 (in words): concentration-response, no actin
Description: as §1, §2, §3

[5] = tested on: FMAL-actin/TMR-cC0-C2 interaction; test: FLT-FRET concentration-response assay, FMAL-actin plus TMR-cC0-C2; format: binding, human; details: unphosphorylated cC0-C2
Description: as §1, §2, §3

Row | effect on FLT-FRET / binding between FMAL-actin and TMR-cC0-C2 (in words) [5] | Structure (SMILES) | cC0-C2#P FLT change (% change from DMSO, FLT of TMR-MyBP-C) [1] [%] | cC0-C2/fC1-C2 (ratio of FLT changes) [2] | fC1-C2 FLT change (% change from DMSO, FLT of TMR-MyBP-C) [2] [%] | 532-nm Δτ, Repeat 1 (TMR-cC0-C2) [ns] | 532-nm Δτ, Repeat 2 (TMR-cC0-C2) [ns] | 532-nm z-score (based on avg Δτ) (TMR-cC0-C2) | 473-nm Δτ, Repeat 1 [3] [ns] | 473-nm Δτ, Repeat 2 [3] [ns] | 473-nm z-score (based on avg Δτ) [3] | cC0-C2/cC0-C2#P (ratio of FLT changes) [4] | cC0-C2 FLT change (% change from DMSO, FLT of TMR-MyBP-C) [4] [%] | difference in effect on TMR FLT between unphosphorylated and phosphorylated TMR-cC0-C2 ([4]; from Table 3) [fold] | effect on FLT of TMR-cC0-C2 in the initial screen (in words) (TMR-cC0-C2) | effect on FLT of TMR-cC0-C2 (in words) [4]
1 |  | Cc1cn(-c2cc(NC(=O)c3ccc(C)c(Nc4nccc(-c5cccnc5)n4)c3)cc(C(F)(F)F)c2)cn1.Cl [Nilotinib hydrochloride] | 14.1 | 0.6 | 15.6 | 0.121 | 0.105 | 6.94 | -0.063 | -0.031 | -2.59 | 0.7 | 10.1 |  |  | 
2 |  | CCc1c(Cl)c(O)c(Cl)c(O)c1C(=O)O[C@H]1[C@H](O)[C@H](OC)[C@H](OC/C2=C\C=C\C[C@H](O)/C(C)=C/[C@H](CC)[C@@H](O[C@@H]3OC(C)(C)[C@@H](OC(=O)C(C)C)[C@H](O)[C@@H]3O)/C(C)=C/C(C)=C/C[C@@H]([C@@H](C)O)OC2=O)O[C@@H]1C [Fidaxomicin] | −0.5 | 1.2 | −4.3 | -0.001 | -0.028 | -0.86 | 0.057 | 0.084 | 3.98 | 10.4 | −5.2 | 10.4 |  | 
3 |  | Cc1nc(-c2ccc(OCC(C)C)c(C#N)c2)sc1C(=O)O [Febuxostat] | 12.1 | 0.7 | 14.6 | 0.129 | 0.132 | 8.01 | 0.070 | 0.043 | 3.18 | 0.8 | 9.6 |  |  | 
4 | decrease | Cc1ccc(Nc2c(F)cccc2Cl)c(CC(=O)O)c1 [Lumiracoxib] |  |  |  | -0.054 | -0.036 | -2.72 | 0.093 | 0.064 | 4.45 |  |  |  |  | 
5 |  | Oc1cccc2cccnc12 [8-Hydroxyquinoline] |  |  |  | -0.167 | -0.285 | -13.76 | -0.025 | -0.188 | -5.91 |  |  |  | strongly reduced | did not
6 |  | CONC(=O)Nc1ccc(-c2sc3c(c2CN(C)C)c(=O)n(-c2ccc(OC)nn2)c(=O)n3Cc2c(F)cccc2F)cc1 [Relugolix] |  |  |  | -0.169 | -0.015 | -5.58 | 0.366 | -0.004 | 10.15 |  |  |  |  | 
7 |  | Nc1ccc2cc3ccc(N)cc3nc2c1 [Proflavine hemisulfate] |  |  |  | -0.016 | -0.080 | -2.91 | 0.430 | 0.337 | 21.48 |  |  |  |  | 
8 |  | CCCCNc1ccc(C(=O)OCCOCCOCCOCCOCCOCCOCCOCCOCCOC)cc1 [Benzonatate] |  |  |  | -0.101 | -0.124 | -6.82 | 0.108 | -0.001 | 3.05 |  |  |  | strongly reduced | did not
9 |  | CN(C)[C@@H]1C(O)=C(C(N)=O)C(=O)[C@@]2(O)C(O)=C3C(=O)c4c(O)cccc4[C@@](C)(O)[C@H]3[C@H](O)[C@@H]12 [Oxytetracycline (Terramycin), Oxytetracycline] |  |  |  | -0.019 | -0.057 | -2.29 | 0.175 | 0.122 | 8.34 |  |  |  |  | 
10 |  | CC1(C)S[C@@H]2[C@H](NC(=O)[C@H](N)c3ccccc3)C(=O)N2[C@H]1C(=O)O [Ampicillin sodium] |  |  |  | 0.003 | 0.007 | 0.34 | 0.184 | 0.161 | 9.70 |  |  |  |  | 
11 |  | O=C(O)c1cc(/N=N/c2ccc(O)c(C(=O)O)c2)ccc1O [Olsalazine Sodium] |  |  |  | -0.057 | -0.123 | -5.46 | 0.202 | 0.096 | 8.38 |  |  |  |  | 
12 |  | CCCCCCCCCCCCCCCC(=O)O[C@@H]1[C@@H](O)[C@@H](O)[C@@H]([C@H](NC(=O)[C@@H]2C[C@@H](CCC)CN2C)[C@H](C)Cl)O[C@@H]1SC.Cl [Clindamycin palmitate HCl] |  |  |  | -0.075 | -0.094 | -5.12 | -0.304 | -0.358 | -18.47 |  | −12.7 |  |  | 
13 |  | CC1=NN(c2ccc(C)c(C)c2)C(=O)/C1=N\Nc1cccc(-c2cccc(C(=O)O)c2)c1O [Eltrombopag olamine] |  |  |  | -0.267 | -0.418 | -20.87 | 0.270 | 0.162 | 12.13 |  |  |  |  | 
14 |  | C=CC1=C(C)c2cc3[nH]c(cc4nc(cc5[nH]c(cc1n2)c(C)c5CCC(=O)O)C(CCC(=O)O)=C4C)c(C)c3C=C [Protoporphyrin IX] |  |  |  | 0.067 | 0.016 | 2.58 | 0.144 | 0.076 | 6.21 |  |  |  |  | 
15 |  | C[C@H](CCC(=O)O)[C@H]1CC[C@H]2[C@@H]3C[C@H](O)[C@@H]4C[C@H](O)CC[C@]4(C)[C@H]3CC[C@]12C [Hyodeoxycholic acid (HDCA), Hyodeoxycholic acid] |  |  |  | -0.021 | -0.120 | -4.27 | 0.111 | 0.072 | 5.17 |  |  |  |  | 
16 |  | CCOC(=O)[C@@H](N)Cc1ccc(-c2cc(O[C@H](c3ccc(Cl)cc3-n3ccc(C)n3)C(F)(F)F)nc(N)n2)cc1 [Telotristat etiprate (LX 1606 Hippurate), Telotristat etiprate] |  |  |  | 0.064 | 0.093 | 4.83 | -0.136 | -0.122 | -7.19 |  |  |  |  | 
17 |  | CCC(=O)c1c(O)cc(O)cc1O [Flopropione] |  |  |  | -0.062 | -0.073 | -4.10 | -0.335 | -0.210 | -15.21 |  |  |  |  | 
18 |  | CCN(CC)CCCC(C)Nc1ccnc2cc(Cl)ccc12 (stereo not drawn) [Chloroquine phosphate] |  |  | 1.9 | 0.311 | 0.320 | 19.30 | -0.042 | -0.069 | -3.07 |  | 2.5 |  |  | 

— paper PMC10692721, “Drug discovery for heart failure targeting myosin-binding protein C” (The Journal of Biological Chemistry, 2023)
